Data from patent US9695155B2, “Herbicidal substituted pyrimidinyloxy benzene compounds” (E. I. DU PONT DE NEMOURS AND COMPANY, priority 2013, dated 2017).
Where two headings read alike, the source gives them in different places.

What was measured:
corn = assay: Test A preemergence; format: in vivo, Zea mays
How it was run: (§1)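 Greenhouse pot test, loam/sand soil. Formulation: non-phytotoxic solvent mix plus surfactant. Pre: directed spray onto soil after sowing. Post: plants at 1–2 leaf, 2–10 cm. Rated visually vs untreated controls at ~10 d, 0 (no effect) to 100 (complete control).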

barnyardgrass = assay: Test B flooded paddy test; format: in vivo, Echinochloa crus-galli; conditions: Flood, 250 g ai/ha, 0 to 100 scale where 0 is no effect and 100 is complete control; for pest or weed control at 250 g/ha: Echinochloa crus-galli, read-out: Plant response rating, Barnyardgrass
How it was run: (§2)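 Plants at 2-leaf stage; pots flooded to 3 cm above soil and compound applied directly into paddy water, depth held throughout. After 13 to 15 days in greenhouse, visual rating versus controls on 0 (no effect) to 100 (complete control) scale.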

wheat = assay: Test A preemergence; format: in vivo, Triticum aestivum
How it was run: as §1

large (Lg) crabgrass [1] = assay: Test A postemergence; format: in vivo, Digitaria sanguinalis; conditions: for pest or weed control at 125 g/ha / pest or weed control at 500 g/ha: Digitaria sanguinalis, post-emergence, 240 h; for pest or weed control at 125 g/ha: read-out: Plant response rating, Crabgrass, Large; for pest or weed control at 500 g/ha: read-out: Plant response rating Crabgrass, Large
How it was run: as §1

sedge, umbrella = assay: Test B flooded paddy test; format: in vivo, Cyperus difformis; conditions: Flood, 250 g ai/ha, 0 to 100 scale where 0 is no effect and 100 is complete control; for pest or weed control at 250 g/ha: Cyperus difformis, read-out: Plant response rating, Sedge, Umbrella
How it was run: as §2

large (Lg) crabgrass [2] = assay: Test C preemergence; format: in vivo, Digitaria sanguinalis
Text: (§3) Seeds of plant species selected from blackgrass (Alopecurus myosuroides), Italian ryegrass (Lolium multiflorum), wheat, winter (winter wheat, Triticum aestivum), galium (catchweed bedstraw, Galium aparine), corn (Zea mays), large (Lg) crabgrass (Digitaria sanguinalis), giant foxtail (Setaria faberii), johnsongrass (Sorghum halepense), lambsquarters (Chenopodium album), morningglory (Ipomoea coccinea), yellow nutsedge (Cyperus esculentus), pigweed (Amaranthus retroflexus), ragweed (common ragweed, Ambrosia elatior), soybean (Glycine max), barnyardgrass (Echinochloa crus-galli), oilseed rape (Brassica napus), waterhemp (common waterhemp, Amaranthus rudis), kochia (Kochia scoparia), wild oat (Avena fatua), surinam grass (Brachiaria decumbens), foxtail, green (green foxtail, Setaria viridis), goosegrass (Eleusine indica), bromegrass, downy (downy bromegrass, Bromus tectorum), nightshade (eastern black nightshade, Solanum ptycanthum), cocklebur (common cocklebur, Xanthium strumarium), cupgrass, woolly (woolly cupgrass, Eriochloa villosa), bermudagrass (Cynodon dactylon), sunflower, (common oilseed sunflower, Helianthus annuus), Russian thistle (Salsola kali), and velvetleaf (Abutilon theophrasti) were planted into a blend of loam soil and sand and treated preemergence with test chemicals formulated in a non-phytotoxic solvent mixture which included a surfactant.
(§4) At the same time, plants selected from these crop and weed species and also barley, winter (winter barley, Hordeum vulgare), windgrass (Apera spica-venti), chickweed (common chickweed, Stellaria media), deadnettle (henbit deadnettle, Lamium amplexicaule), and canarygrass (littleseed canarygrass, Phalaris minor) were planted in pots containing Redi-Earth® planting medium (Scotts Company, 14111 Scottslawn Road, Marysville, Ohio 43041) comprising spaghnum peat moss, vermiculite, wetting agent and starter nutrients and treated with postemergence applications of test chemicals formulated in the same manner. Plants ranged in height from 2 to 18 cm (1- to 4-leaf stage) for postemergence treatments. Treated plants and controls were maintained in a greenhouse for 13 to 15 days, after which time all species were compared to controls and visually evaluated. Plant response ratings, summarized in Table C, are based on a scale of 0 to 100 where 0 is no effect and 100 is complete control. A dash (-) response means no test result.

pigweed = assay: Test C preemergence; format: in vivo, Amaranthus retroflexus
Text: as §3, §4

[3] = 125 g ai/ha, 0 to 100 scale where 0 is no effect and 100 is complete control
[4] = 500 g ai/ha, 0 to 100 scale, 0 no effect, 100 complete control, approx. 10 days
[5] = 500 g ai/ha, 0 to 100 scale, 0 no effect, 100 complete control
[6] = 16 g ai/ha, preemergence, scale 0 to 100 (0 no effect, 100 complete control)
[7] = 125 g ai/ha, preemergence, scale 0 (no effect) to 100 (complete control)
[8] = Preemergence, 62 g ai/ha, scale 0 to 100, 0 no effect, 100 complete control
[9] = 62 g ai/ha, preemergence, scale 0 (no effect) to 100 (complete control)
[10] = Preemergence, 31 g ai/ha, scale 0 to 100, 0 no effect, 100 complete control
[11] = Digitaria sanguinalis, pre-emergence, 125 g ai/ha, preemergence, scale 0 (no effect) to 100 (complete control), read-out: Crabgrass, Large plant response rating
[12] = Amaranthus retroflexus, pre-emergence, 125 g ai/ha, preemergence, scale 0 (no effect) to 100 (complete control), read-out: Pigweed plant response rating
[13] = Zea mays, pre-emergence, 240 h, 500 g ai/ha, 0 to 100 scale, 0 no effect, 100 complete control, approx. 10 days, read-out: Corn plant response rating
[14] = Triticum aestivum, pre-emergence, 240 h, 500 g ai/ha, 0 to 100 scale, 0 no effect, 100 complete control, approx. 10 days, read-out: Wheat plant response rating
[15] = 500 g ai/ha, 0 to 100 scale where 0 is no effect and 100 is complete control

Row | SMILES | Plant response rating, Barnyardgrass (barnyardgrass) | Plant response rating, Sedge, Umbrella (sedge, umbrella) | Crabgrass, Large plant response rating (large (Lg) crabgrass [2]; [6]) | Crabgrass, Large plant response rating (large (Lg) crabgrass [2]; [7]) | Plant response rating, Crabgrass, Large (large (Lg) crabgrass [2]; [8]) | Pigweed plant response rating (pigweed; [6]) | Pigweed plant response rating (pigweed; [7]) | Plant response rating, Pigweed (pigweed; [8]) | Crabgrass, Large plant response rating (large (Lg) crabgrass [2]; [9]) | Plant response rating, Crabgrass, Large (large (Lg) crabgrass [2]; [10]) | Pigweed plant response rating (pigweed; [9]) | pest or weed control at 250 g/ha (barnyardgrass) [%] | pest or weed control at 250 g/ha (sedge, umbrella) [%] | further results
1 | Clc1cnc(Oc2ccccc2-n2cc(Cl)cn2)nc1 [Compound 3] | 0 | 75 | – | – | – | – | – | – | – | – | – | – | – | Corn plant response rating (corn; [3]): 0; Corn plant response rating (corn; [4]): 10; Wheat plant response rating (wheat; [3]): 0; Wheat plant response rating (wheat; [4]): 10; Plant response rating, Crabgrass, Large (large (Lg) crabgrass [1]; [3]): 10; Plant response rating, Crabgrass, Large (large (Lg) crabgrass [1]; [5]): 80
2 | FCc1cccc(Oc2ncc(Cl)cn2)c1-n1cc(Cl)cn1 [Compound 250] | 0 | 35 | 75 | 100 | 98 | 85 | 100 | 100 | – | – | – | – | – | –
3 | COc1cnn(-c2c(C#N)cccc2Oc2ncc(Cl)cn2)c1 [Compound 137] | 0 | 0 | 10 | 100 | – | 75 | 100 | – | 98 | 70 | 90 | – | – | –
4 | N#Cc1cccc(Oc2ncc(Cl)cn2)c1-n1cnc(C(F)(F)F)c1 [Compound 252, 3-[(5-chloro-2-pyrimidinyl)oxy]-2-[4-(trifluoromethyl)-1H-imidazol-1-yl]benzonitrile] | – | – | – | – | – | – | – | – | – | – | – | 40 | 80 | pest or weed control at 16 g/ha (large (Lg) crabgrass [2]; Digitaria sanguinalis, pre-emergence, 16 g ai/ha, preemergence, scale 0 to 100 (0 no effect, 100 complete control), read-out: Crabgrass, Large plant response rating): 60%; pest or weed control at 125 g/ha (large (Lg) crabgrass [2]; [11]): 100%; pest or weed control at 62 g/ha (large (Lg) crabgrass [2]; Digitaria sanguinalis, pre-emergence, Preemergence, 62 g ai/ha, scale 0 to 100, 0 no effect, 100 complete control, read-out: Plant response rating, Crabgrass, Large): 100%; pest or weed control at 16 g/ha (pigweed; Amaranthus retroflexus, pre-emergence, 16 g ai/ha, preemergence, scale 0 to 100 (0 no effect, 100 complete control), read-out: Pigweed plant response rating): 98%; pest or weed control at 125 g/ha (pigweed; [12]): 100%; pest or weed control at 62 g/ha (pigweed; Amaranthus retroflexus, pre-emergence, Preemergence, 62 g ai/ha, scale 0 to 100, 0 no effect, 100 complete control, read-out: Plant response rating, Pigweed): 100%
5 | FC(F)(F)c1cnn(-c2ccccc2Oc2ncc(Br)cn2)c1 [Compound 18, 5-bromo-2-[2-[4-(trifluoromethyl)-1H-pyrazol-1-yl]phenoxy]pyrimidine] | – | – | – | – | – | – | – | – | – | – | – | 30 | 90 | pest or weed control at 62 g/ha (large (Lg) crabgrass [2]; Digitaria sanguinalis, pre-emergence, 62 g ai/ha, preemergence, scale 0 (no effect) to 100 (complete control), read-out: Crabgrass, Large plant response rating): 100%; pest or weed control at 125 g/ha (large (Lg) crabgrass [2]; [11]): 100%; pest or weed control at 250 g/ha (large (Lg) crabgrass [2]; Digitaria sanguinalis, pre-emergence, 250 g ai/ha, preemergence, scale 0 (no effect) to 100 (complete control), read-out: Crabgrass, Large plant response rating): 100%; pest or weed control at 31 g/ha (large (Lg) crabgrass [2]; Digitaria sanguinalis, pre-emergence, Preemergence, 31 g ai/ha, scale 0 to 100, 0 no effect, 100 complete control, read-out: Plant response rating, Crabgrass, Large): 75%; Corn plant response rating (crop injury, 0 = no effect, 100 = complete kill) at 125 g/ha (corn; Zea mays, pre-emergence, 240 h, 125 g ai/ha, 0 to 100 scale where 0 is no effect and 100 is complete control): 0%; plant injury at 500 g/ha (corn; [13]): 10%; pest or weed control at 62 g/ha (pigweed; Amaranthus retroflexus, pre-emergence, 62 g ai/ha, preemergence, scale 0 (no effect) to 100 (complete control), read-out: Pigweed plant response rating): 100%; pest or weed control at 125 g/ha (pigweed; [12]): 100%; pest or weed control at 250 g/ha (pigweed; Amaranthus retroflexus, pre-emergence, 250 g ai/ha, preemergence, scale 0 (no effect) to 100 (complete control), read-out: Pigweed plant response rating): 100%; pest or weed control at 31 g/ha (pigweed; Amaranthus retroflexus, pre-emergence, Preemergence, 31 g ai/ha, scale 0 to 100, 0 no effect, 100 complete control, read-out: Plant response rating, Pigweed): 100%; Plant response rating, Wheat (wheat; [3]): 0; plant injury at 500 g/ha (wheat; [14]): 70%; pest or weed control at 125 g/ha (large (Lg) crabgrass [1]; [3]): 70%; pest or weed control at 500 g/ha (large (Lg) crabgrass [1]; [5]): 100%
6 | CCOc1cnn(-c2ccccc2Oc2ncc(Cl)cn2)c1 [Compound 187] | 0 | 50 | 5 | 100 | 100 | 45 | 100 | 90 | – | – | – | – | – | Corn plant response rating (0 to 100 scale) (corn; 125 g ai/ha): 0; Corn plant response rating (corn; [15]): 40; Wheat plant response rating (0 to 100 scale) (wheat; 125 g ai/ha): 0; Wheat plant response rating (wheat; [15]): 40; Crabgrass, Large plant response rating (large (Lg) crabgrass [1]; [3]): 60; Plant response rating, Crabgrass, Large (large (Lg) crabgrass [1]; [15]): 100
7 | Fc1cccc(Oc2ncc(Cl)cn2)c1-n1cc(OCC(F)(F)F)cn1 [Compound 270] | 35 | 90 | 50 | 100 | 100 | 100 | 100 | 100 | – | – | – | – | – | –
8 | FCc1cccc(Oc2ncc(F)cn2)c1-n1cc(C(F)(F)F)cn1 [Compound 118] | 50 | 95 | 30 | 100 | – | 90 | 100 | – | 85 | 80 | 100 | – | – | Plant response rating, Pigweed (pigweed; [10]): 100
9 | FC(F)(F)c1ccn(-c2ccccc2Oc2ncc(Cl)cn2)n1 [Compound 2, 5-chloro-2-[2-[3-(trifluoromethyl)-1H-pyrazol-1-yl]phenoxy]pyrimidine] | – | – | – | – | – | – | – | – | – | – | – | 0 | 0 | plant injury at 125 g/ha (corn; Zea mays, pre-emergence, 240 h, 125 g ai/ha, 0 to 100 scale where 0 is no effect and 100 is complete control, read-out: Corn plant response rating): 0%; plant injury at 500 g/ha (corn; [13]): 30%; plant injury at 125 g/ha (wheat; Triticum aestivum, pre-emergence, 240 h, 125 g ai/ha, 0 to 100 scale where 0 is no effect and 100 is complete control, read-out: Wheat plant response rating): 0%; plant injury at 500 g/ha (wheat; [14]): 0%; pest or weed control at 125 g/ha (large (Lg) crabgrass [1]; [3]): 20%; pest or weed control at 500 g/ha (large (Lg) crabgrass [1]; [5]): 60%
10 | N#Cc1cnn(-c2c(CF)cccc2Oc2ncc(F)cn2)c1 [Compound 151] | 0 | 0 | 5 | 100 | – | 100 | 100 | – | 98 | 85 | 100 | – | – | –
